According to patent US20110124657A1, “METHOD FOR SCREENING OF 5HT7 RECEPTOR LIGANDS BASED ON A NEW PHARMACOPHORE MODEL AND A DESCRIPTOR'S PROFILE FILTER” (LABORATORIOS DEL DR. ESTEVE, S.A., priority 2008, published 2011):
Like-named read-outs stand apart in the source and are kept apart here.

Molecular target: T1, Cloned Human Serotonin Receptor, Subtype 7 (h5HT7), expressed in CHO cells (Homo sapiens, UniProt P34969)
T1 construct: purchased PerkinElmer 6120512; host or cells: CHO cells (membranes coated on FlashPlate)
T1 sequence (P34969 whole entry): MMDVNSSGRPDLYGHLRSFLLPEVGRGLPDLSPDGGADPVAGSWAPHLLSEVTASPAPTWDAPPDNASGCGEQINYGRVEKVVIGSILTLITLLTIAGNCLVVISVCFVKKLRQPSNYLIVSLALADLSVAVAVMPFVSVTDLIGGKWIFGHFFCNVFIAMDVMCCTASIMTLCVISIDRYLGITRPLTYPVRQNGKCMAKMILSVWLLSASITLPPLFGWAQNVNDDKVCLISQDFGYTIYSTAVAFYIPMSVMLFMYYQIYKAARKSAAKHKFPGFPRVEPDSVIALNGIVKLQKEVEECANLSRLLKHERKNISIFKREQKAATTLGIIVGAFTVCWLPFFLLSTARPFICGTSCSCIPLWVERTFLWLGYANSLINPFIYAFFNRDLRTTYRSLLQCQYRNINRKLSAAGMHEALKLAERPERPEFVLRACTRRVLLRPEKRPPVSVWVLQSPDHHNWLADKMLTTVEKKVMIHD
Assay: Radioligand binding, [125I]LSD, Flashplate
Conditions: for inhibition at 1 µM: read-out: %-Inhib. (10^−6 M)
Method: Radioligand binding assays were performed using the Cloned Human Serotonin Receptor, Subtype 7 (h5HT7), expressed in CHO cells, coated on Flashplate (Basic FlashPlate Cat.: SMP200) from PerkinElmer (Cat.: 6120512). The protocol assay was essentially the recommended protocol in the Technical Data Sheet by PerkinEmer Life and Analytical Sciences. The Mass membrane protein/well was typically 12 μg and the Receptor/well was about 9-10 fmoles. The Flashplate were let equilibrate at room temperature for one hour before the addition of the components of the assay mixture. The binding buffer was: 50 mM Tris-HCl, pH 7.4, containing 10 mM MgCl2, 0.5 mM EDTA and 0.5% BSA. The radioligand was [^125I]LSD at a final concentration of 0.82 nM. Nonspecific binding was determined with 50 μM of Clozapine. The assay volume was 25 μl. TopSeal-A were applied onto Flashplate microplates and they were incubated at room temperature for 240 minutes in darkness. The radioactivity were quantified by liquid scintillation spectrophotometry (Wallac 1450 Microbeta Trilux) with a count delay of 4 minutes prior to counting and a counting time of 30 seconds per well. Competition binding data were analyzed by using the LIGAND program (Munson and Rodbard, LIGAND: A versatile, computerized approach for characterization of ligand-binding systems. Anal. Biochem. 107: 220-239, 1980) and assays were performed in triplicate determinations for each point.

[1] = compound at 10^−6 M, radioligand [125I]LSD 0.82 nM
[2] = radioligand [125I]LSD 0.82 nM, triplicate determinations, read-out: IC50

| SMILES | inhibition at 1 µM [1] [%] | IC50 [2] [nM] | IC50 [nM] | inhibition at 1 µM [%] |
| --- | --- | --- | --- | --- |
| CC(C)Oc1ccccc1N1CCN(Cc2ccc(Cl)nc2)CC1 [1-((6-chloropyridin-3-yl)methyl)-4-(2-isopropoxyphenyl)piperazine] | 82.5 |  |  |  |
| COc1ccccc1N1CCN(CCC(=O)Nc2ccc3c(c2)CCC3)CC1 [N-(2,3-dihydro-1H-inden-5-yl)-3-(4-(2-methoxyphenyl)piperazin-1-yl)propanamide] | 65.7 | 1390 |  |  |
| COc1ccccc1N1CCN(CCC(O)c2ccccc2)CC1 (stereo not drawn) [3-(4-(2-methoxyphenyl)piperazin-1-yl)-1-phenylpropan-1-ol] | 78.5 | 139 |  |  |
| O=C(c1cccs1)C1CN2CCC1CC2 (stereo not drawn) [quinuclidin-3-yl(thiophen-2-yl)methanone] |  |  | 983 | 52.1 |
| COc1ccc(C(C)C)cc1CN1CCN(c2cccc3[nH]ccc23)CC1 [4-(4-(5-isopropyl-2-methoxybenzyl)piperazin-1-yl)-1H-indole] |  |  | 28.7 | 76.6 |
| O=c1[nH]c2ccccc2n1C1=CCN(CCOc2ccccc2)CC1 [1-(1-(2-phenoxyethyl)-1,2,3,6-tetrahydropyridin-4-yl)-1H-benzo[d]imidazol-2(3H)-one] | 85.3 | 314 |  |  |
| O=c1[nH]c2ccccc2n1C1=CCN(CCCOc2ccccc2)CC1 [1-(1-(3-phenoxypropyl)-1,2,3,6-tetrahydropyridin-4-yl)-1H-benzo[d]imidazol-2(3H)-one] |  | 1260 |  | 67.6 |
| CC(C)Oc1ccccc1N1CCN(Cc2ccc(-n3ccnc3)cc2)CC1 [1-(4-(1H-imidazol-1-yl)benzyl)-4-(2-isopropoxyphenyl)piperazine] |  | 278 |  | 74.3 |
| CCOc1ccccc1N1CCN(Cc2c[nH]c3ccccc23)CC1 [3-((4-(2-ethoxyphenyl)piperazin-1-yl)methyl)-1H-indole] |  |  | 440 | 70 |
| O=c1[nH]c2ccccc2n1C1CCN(CCOc2ccccc2)CC1 [1-(1-(2-phenoxyethyl)piperidin-4-yl)-1H-benzo[d]imidazol-2(3H)-one] | 76.1 | 236 |  |  |
| CN(C)S(=O)(=O)c1ccc2[nH]cc(CCN)c2c1 [3-(2-aminoethyl)-N,N-dimethyl-1H-indole-5-sulfonamide] |  | 173 |  | 84.3 |
